Reference: EP4494632A1, “LIPOPHILIC-BASED COMPOSITION” (Consejo Superior de Investigaciones Científicas (CSIC), priority 2023, dated 2025)
Read-outs that look alike come from different tables or passages of the source.

Columns and labels:
[1] = cited from earlier work
[2] = Kinetic permeation of biocides using vertical Franz diffusion cells
Experimental: (§1) As in the previous TEWL study, sublingual mucosa and porcine skin dermatomized to a thickness of 500-700 µm are used. Kinetic diffusion studies were performed using a vertical diffusion cell (Lara Spiral, Couternon, France (1.86 cm^2 and 3 ml). The receiver fluid (RF) used was PBS:EtOH (1:1). A water bath was set at 43°C to obtain a membrane surface temperature of 32 ± 1°C.
(§2) Subsequently, the drugs are deposited to determine their kinetics. To that end, 300 µl (infinite dose) of the 1% solution of the 4 drugs in methanol were applied to each Franz cell, in triplicate. Aliquots of 0.2 ml were collected at different times (30 min, 1 h, 2 h, 4 h). The active ingredients were diluted in suitable graduated flasks and filtered through a 0.22 µm nylon filter (Cameo, Sigma-Aldrich, St Louis, U. S.A.). They were then further analyzed with a high performance liquid chromatography diode array detector (HPLC-DAD).
(§3) The equation is as follows (1): Qn = (Cn × Vc + ∑i = 1^(n−1) (Ci×Vs))/(A) [formula]
(§4) Wherein: Qn is the cumulative amount of active ingredient released at time n (µg/cm^2); Cn is the concentration of active ingredient in the sample (µg/ml); Vc is the volume of the vertical diffusion cell (7 ml); ∑i = 1^(n−1) Ci [formula] is the sum of the API concentrations (µg/ml) determined at sampling intervals 1 to n-1; Vs is the volume of the sample, and A is the surface area of the sample (1.77 cm^2).
(§5) Two parameters were used, Qn and % API release, to obtain graphs showing absorption and penetration kinetics (Y-axis). Time or its square root (√t) is indicated on the X-axis. […] This step allowed determining the best absorption model to represent the penetration kinetics of the API through the different membranes. The model was obtained with the non-linear regression software STATGRAPHICS plus 5 (Statgraphics Technologies, Inc., Virginia, U. S.A.), and the best equation was selected based on the highest correlation coefficient corrected by the number of degrees of freedom (R2 DoF). Once having defined the model, it was possible to calculate other parameters, such as the flow (J), permeability coefficient (Kp), delay time (TI), maximum concentration (Cmax), maximum time (tmax), and area under the curve (AUC). All results are expressed as mean ± standard deviation (SD).
(§6) Furthermore, porcine skin permeation is studied. As mentioned in the introduction, the barrier structure of the skin differs greatly from that of the mucosae.
(§7) The biocides evaluated were fungitrol (FUN), propiconazole (PRO), and permethrin (PER) dissolved in ethanol at a concentration of 1% for each active ingredient. […] Table 9. Biocides and their physicochemical properties.
(§8) Table 10. Conditions of the method which are used in HPLC/DAD analysis for fungitrol, propiconazole, and permethrin

[3] = in vitro
Experimental: as §1, §2, §3, §4, §5, §6, §7, §8

[4] = in vitro; remark: listed apart in the source
Text: (§9) Furthermore, porcine skin permeation is studied. As mentioned in the introduction, the barrier structure of the skin differs greatly from that of the mucosae. In this sense, it will be evaluated whether the mucosae modified both by lipophilic compositions and by compositions that mimic the stratum corneum could have a barrier effect similar to that of the skin.
(§10) Next, the main physicochemical properties which are important in permeability through keratin tissues, such as the skin and mucosae, and the classification to which they belong are described in detail. […] Compounds to be evaluated, physicochemical properties, and classification.
as §1, §2
(§11) The software used was OpenLab. […] The ICH guidelines were followed to obtain the calibration curve, the limit of quantification (LoQ), and the limit of detection (LoD). The HPLC-DAD analytical conditions and the method for the four active ingredients are described in detail in Table 4.
as §3, §4, §5

[5] = in vitro; details: for Permea. coeff., Kp / Cmax at 1 %: pig; for Cmax at 1 %: Conc. Max.
Text: as §9, §10, §1
After 1 h, the TEWL is measured again (Table 3). Table 3. Application of the composition F-MI and evaluation of transepidermal water loss, from the skin, from porcine sublingual mucosa and from the same mucosa modified by applying composition F-MI before applying the drugs.
as §2, §11, §3, §4, §5

[6] = BCS group; cited from earlier work
[7] = sublingual mucosa with F-MI, 1% in ethanol
[8] = unmodified sublingual mucosa, 1% in ethanol
[9] = skin, 300 µl of 1% solution in methanol

| SMILES | LogP (pH 7.4) ([1]; biocides, Table 9, PubChem) | Flow, J ([2]; skin, 1% in ethanol) [µg/cm^2/h] | Latency time, LT ([2]; skin, 1% in ethanol) [h] | Flow, J [3, 7] [µg/cm^2/h] | Latency time, LT [3, 7] [h] | Permea. coeff., Kp [3, 7] | Flow, J [3, 8] [µg/cm^2/h] | Latency time, LT [3, 8] [h] | Area under the curve, AUC [4] [mg/cm^2] | Flow, J ([4]; pig, 1 %) | Latency time, LT ([4]; pig, 1 %) | Group [6] | other results |
| --- | --- | --- | --- | --- | --- | --- | --- | --- | --- | --- | --- | --- | --- |
| CC1(C)C(C=C(Cl)Cl)C1C(=O)OCc1cccc(Oc2ccccc2)c1 (centres unmarked) [Permethrin (PER), Permethrin] | 6.5 | 2.93±0.23 | -1.49 ± 0.66 | 3.85±4.00 | -0.28 ± 1.77 | 0.26±0.27 10^-3cm/h | 58.67±45.51 | -0.53 ± 1.14 | – | – | – | – | Cmax at 1 % ([2]; pig): 9350 ± 110 ng/mL; Permea. coeff., Kp ([2]; pig): 0.20±0.015 10^-3cm/h; Cmax at 1 % ([3]; pig): 15700 ± 20300 ng/mL; Permea. coeff., Kp ([3]; pig): 4.02±3.12 10^-3cm/h |
| Cn1c(=O)c2c(ncn2C)n(C)c1=O [Caffeine (CAF), Caffeine] | – | – | – | – | – | – | – | – | 0.41±0.27 | 75.09±51.32 µg/cm^2/h | 0.65 ± 0.24 h | 1 | Conc. Max., Cmax [4]: 107.23±57.7 3 µg/ml; Permea. coeff., Kp ([4]; pig): 6.06±4.12 10^-3cm/h; Permea. coeff., Kp [5]: 34.55±6.56 10^-3cm/h; Permea. coeff., Kp ([5]; 1 h): 8.28±2.48 10^-3cm/h |
| CC(C)Cc1ccc(C(C)C(=O)O)cc1 (centres unmarked) [Ibuprofen (IBU), Ibuprofen] | – | – | – | – | – | – | – | – | 0.10 ± 0.01 | 24.79 ± 2.75 µg/cm^2/h | -0.24 ± 0.19 h | 2 | Cmax at 1 % ([4]; pig): 21900 ± 1980 ng/mL; Permea. coeff., Kp ([4]; pig): 2.05 ± 0.23 10^-3cm/h; Permea. coeff., Kp [5]: 28.67±0.49 10^-3cm/h; Permea. coeff., Kp ([5]; 1 h): 41.18±4.09 10^-3cm/h; Cmax at 1 % [5]: 341 ± 63.6 µg/mL |
| CCCCNC(=O)OCC#CI [Fungitrol (FUN), 3-lodo-2-propynyl butylcarbamate] | 2.4 | 6.02±3.93 | 0.70 ± 0.00 | 5.59±1.32 | 0.65 ± 0.08 | 0.61±0.14 10^-3cm/h | 62.88±29.97 | -0.34 ± 1.32 | – | – | – | – | Permea. coeff., Kp ([2]; skin, 1% in ethanol): 1.00±0.40 10^-3cm/h; Permea. coeff., Kp [3, 8]: 6.80±3.26 10^-3cm/h |
| C[C@@H]1C[C@H]2[C@@H]3CCC4=CC(=O)C=C[C@]4(C)[C@@]3(F)[C@@H](O)C[C@]2(C)[C@@]1(O)C(=O)CO [Dexamethasone (DEX), Dexamethasone] | – | – | – | – | – | – | – | – | 0.03±0.01 | 5,84±3,46 µg/cm^2/h | 0,62±0,16 h | – | Cmax at 1 % ([4]; pig): 67400 ng/mL; Cmax at 1 % [5]: 315 µg/mL; LogP (pH 7.4) ([1]; drugs, Table 2): 1.74 |
| CCCC1COC(Cn2cncn2)(c2ccc(Cl)cc2Cl)O1 (centres unmarked) [Propiconazole (PRO), Propiconazole] | 3.7 | 2.26±1.48 | 0.60 ± 0.015 | 6.62±3.74 | 1.66 ± 1.00 | 0.70±0.39 10^-3cm/h | 63.92±44.92 | -0.04 ± 1.68 | – | – | – | – | Permea. coeff., Kp ([2]; pig): 0.24±0.16 10^-3cm/h; Permea. coeff., Kp [3, 8]: 6.80±4.78 10^-3cm/h |
| CC[C@H](C)[C@H]1O[C@]2(CC[C@@H]1C)C[C@@H]1C[C@@H](C/C=C(\C)[C@@H](O[C@H]3C[C@H](OC)[C@@H](O[C@H]4C[C@H](OC)[C@@H](O)[C@H](C)O4)[C@H](C)O3)[C@@H](C)/C=C/C=C3\CO[C@@H]4[C@H](O)C(C)=C[C@@H](C(=O)O1)[C@]34O)O2 [Ivermectin (IVE), Ivermectin] | – | – | – | – | – | – | – | – | – | – | – | 4 | Flow, J [4, 9]: 3.13±0.86 µg/cm^2/h; Latency time, LT [4, 9]: 0.59 ± 0.28 h; permeability through the unmodified mucosa compared to the skin [5]: 20 times; Latency time, LT ([5]; sublingual mucosa with F-MI (70 µl deposited 1 h before), 1% solution in methanol): 0.28 ± 0.02 h; Flow, J ([5]; unmodified sublingual mucosa, 1% solution in methanol): 63.75±1.57 µg/cm^2/h; LogP (pH 7.4) ([1]; drugs, Table 2): 5.83 |
